Assay results taken from US20240174702A1, “SOLID FORMS OF A COMPOUND FOR […]” (Gilead Sciences, Inc., priority 2022, published 2024).

What was measured:
[1] = Stability study: loss of purity over time by liquid chromatography; assay type: physicochemical
Procedure: Formula I amorphous material and Forms I, II, III and IV were examined for loss of purity over time as determined by liquid chromatography.
The sample preparations for the stability study are described as follows: • Formula I Amorphous: A sample of amorphous solids was placed at about 22° C. open to air and the purity was monitored over 3 days by liquid chromatography. • Formula I Form I: Samples of Formula I Form I were placed in sealed glass vials and placed in a chamber at about 40° C. and about 75% RH and the purity was periodically monitored by liquid chromatography. • Formula I Form II: Samples of Formula I Form II were placed in an open vial. The vial was placed inside a container alongside a saturated salt solution to provide a humidity of about 88% RH and sealed. The sealed container was then placed into a chamber at about 40° C. and the purity was periodically monitored by liquid chromatography. • Formula I Form III: Samples of Formula I Form […] and sealed. The sealed container was then placed into a chamber at about 40° C. and the purity was periodically monitored by liquid chromatography. • Formula I Form IV: Samples of Formula I Form IV were packaged at about 0% RH inside a PE bag and heat-sealed inside a foil pouch. The pouches were then placed in a chamber at about 40° C. and the purity was periodically monitored by liquid chromatography.

[2] = Dynamic vapor sorption (DVS) hygroscopicity; assay type: physicochemical; conditions: 25° C.
Procedure: Hygroscopicity was studied using dynamic vapor sorption (DVS, TA Q5000 SA, TA Instruments, New Castle, DE or DVS, DVS Intrinsic, Surface Measurement Systems, London, UK). A sample (2-20 mg) was placed in an aluminum DVS pan and loaded on the sample side of the twin pan balance. The water sorption and desorption were studied as a function of relative humidity (RH) at 25° C. In 10% RH increments, the relative humidity was increased from 5% RH to 95% RH and then decreased back to 5% (some cases from 0 to 90% RH and then decrease back to 0%). […] Data analysis was performed using Universal Analysis 2000 Version 4.7A (TA Instruments, New Castle, DE) for TA DVS runs and Microsoft Excel for SMS DVS runs.

## Cn1ccc2c([C@@H](c3cn(C45CC(C4)C5)nn3)N(C(=O)OCOP(=O)(O)O)c3cc(Cl)c4ncc(C#N)c(NCC(C)(C)C)c4c3)cccc2c1=O [Formula I Amorphous]
[1]; About 22° C., open to atmosphere, 0 days
  Formula I Purity Over Time (% purity): 95.74 % purity
[1]; About 22° C., open to atmosphere, 1 day
  Formula I Purity Over Time (% purity): 95.45 % purity
[1]; About 22° C., open to atmosphere, 2 days
  Formula I Purity Over Time (% purity): 95.18 % purity
[1]; About 22° C., open to atmosphere, 3 days
  Formula I Purity Over Time (% purity): 95.05 % purity

## Cn1ccc2c([C@@H](c3cn(C45CC(C4)C5)nn3)N(C(=O)OCOP(=O)(O)O)c3cc(Cl)c4ncc(C#N)c(NCC(C)(C)C)c4c3)cccc2c1=O [Formula I Form III]
[1]; About 40° C., about 27% RH, 0 days
  Formula I Purity Over Time (% purity): 98.61 % purity
[1]; About 40° C., about 27% RH, 1 day
  Formula I Purity Over Time (% purity): 98.58 % purity
[1]; About 40° C., about 27% RH, 7 days
  Formula I Purity Over Time (% purity): 98.55 % purity
[1]; About 40° C., about 27% RH, 14 days
  Formula I Purity Over Time (% purity): 98.50 % purity

## Cn1ccc2c([C@@H](c3cn(C45CC(C4)C5)nn3)N(C(=O)OCOP(=O)(O)O)c3cc(Cl)c4ncc(C#N)c(NCC(C)(C)C)c4c3)cccc2c1=O [Formula I Form II]
[1]; About 40° C., about 88% RH, 0 days
  Formula I Purity Over Time (% purity): 98.78 % purity
[1]; About 40° C., about 88% RH, 1 day
  Formula I Purity Over Time (% purity): 98.67 % purity
[1]; About 40° C., about 88% RH, 7 days
  Formula I Purity Over Time (% purity): 98.64 % purity
[1]; About 40° C., about 88% RH, 14 days
  Formula I Purity Over Time (% purity): 98.59 % purity
[1]; compared to Formula I Form I or Formula I amorphous material
  loss of purity over time: decreased loss of purity over time

## Cn1ccc2c([C@@H](c3cn(C45CC(C4)C5)nn3)N(C(=O)OCOP(=O)(O)O)c3cc(Cl)c4ncc(C#N)c(NCC(C)(C)C)c4c3)cccc2c1=O [Formula I Form IV]
[1]; About 40° C., about 0% RH, 0 days
  Formula I Purity Over Time (% purity): 99.49 % purity
[1]; About 40° C., about 0% RH, 14 days
  Formula I Purity Over Time (% purity): 99.44 % purity
[1]; About 40° C., about 0% RH, 28 days
  Formula I Purity Over Time (% purity): 99.43 % purity

## Cn1ccc2c([C@@H](c3cn(C45CC(C4)C5)nn3)N(C(=O)OCOP(=O)(O)O)c3cc(Cl)c4ncc(C#N)c(NCC(C)(C)C)c4c3)cccc2c1=O [Formula I Form I]
[1]; About 40° C., about 75% RH, 0 days
  Formula I Purity Over Time (% purity): 99.13 % purity
[1]; About 40° C., about 75% RH, 7 days
  Formula I Purity Over Time (% purity): 98.37 % purity
[1]; About 40° C., about 75% RH, 14 days
  Formula I Purity Over Time (% purity): 97.97 % purity
[1]; About 40° C., about 75% RH, 28 days
  Formula I Purity Over Time (% purity): 96.57 % purity
[2]; RH 5-95%
  DVS weight change: about 9.5 weight percent

## Cn1ccc2c([C@@H](c3cn(C45CC(C4)C5)nn3)N(C(=O)OCOP(=O)(O)O)c3cc(Cl)c4ncc(C#N)c(NCC(C)(C)C)c4c3)cccc2c1=O [Formula I Glycolate]
[2]; 0-90% RH
  DVS weight change: about 7.5%
[2]; 50-90% RH
  DVS weight change: about 2%

## Cn1ccc2c([C@@H](c3cn(C45CC(C4)C5)nn3)N(C(=O)OCOP(=O)(O)O)c3cc(Cl)c4ncc(C#N)c(NCC(C)(C)C)c4c3)cccc2c1=O [Formula I Pyruvate Form B]
[2]; 10-90% RH
  DVS weight change: about 4.3%
[2]; 50-90% RH
  DVS weight change: about 2.5%

## Cn1ccc2c([C@@H](c3cn(C45CC(C4)C5)nn3)N(C(=O)OCOP(=O)(O)O)c3cc(Cl)c4ncc(C#N)c(NCC(C)(C)C)c4c3)cccc2c1=O [Formula I α-Ketobutyrate Form B]
[2]; 0-90% RH
  DVS weight change: about 5.5%
[2]; 50-90% RH
  DVS weight change: about 2%
